A short description of one data set: Solubility. In kind it is physicochemical. The source says:
(j) solubility: soluble in water, methanol and ethanol; insoluble in ethyl acetate and acetone;

The test system of another data set is Komatsuna seeds. The experiment in a line: Inhibitory effect on the germination of Komatsuna seeds. Particulars: Brassica rapa, 72 h; 28° C. for 3 days; read-out: minimum inhibitory concentration against the germination of Komatsuna seeds. In kind it is in vivo, Brassica rapa (L) var. Komatsuna Hara. The method, then:
Sterilized cotton was placed on the bottom of a test tube (10 mm×100 mm) to a height of about 5 mm, and the cotton was then soaked with 0.5 ml of either distilled water or of an aqueous solution containing various concentrations of Substance No. 51262. About 10 seeds of the plant Komatsuna [Brassica rapa (L) var. Komatsuna Hara] were placed into each test tube and allowed to stand at 28° C. for 3 days to determine the inhibitory concentration of Substance No. 51262, assessed by the presence or absence of germination.

The test system of data set [1] is paddy field rice, soybeans, corn, cotton and purple nutsedge. Kind of data set: Plant growth retardation. The data set is classed as in vivo. The source says:
(§1) A plastic pot was filled with upland soil to provide a surface area of soil of 150 cm^2. Seeds of paddy field rice, soybeans corn and cotton were sowed, Tubers of the perennial weed, purple nutsedge (Cyperus rotundus) were then planted into each pot and the seeds and tubers were covered with the same soil. The pots were placed in a greenhouse for 10 days, after which aqueous solutions of Substance No. 51262 (prepared as described hereafter in Example 11) to the required concentrations were mixed with 0.03% v/v of the spreader Gramin S. 5 ml of the resulting solution were sprayed onto each pot. The growth of the resulting plants were compared after 2 weeks with a control which had not been so treated.

The subject of a further data set is purple nutsedge. Kind of data set: Plant growth retardation, purple nutsedge. In kind it is in vivo, Cyperus rotundus. Particulars: 500 ppm; after 2 weeks vs untreated control.
Source text: as §1

For the next data set, the system named is mice. Particulars: mouse, in vivo, iv, 100 mg/kg. The method, then:
A solution of Substance No. 51262 was administered intravenously to mice in an amount of 100 mg/kg bodyweight.

A further data set concerns various weeds. Kind of data set: Herbicidal activity against weeds, pre- and post-emergence (summary statement). The data set is classed as in vivo.

Structures are written as SMILES.

As to `O=C1NC(=O)[C@@]2(N1)O[C@H](CO)[C@@H](O)[C@H]2O` [Substance No. 51262], the solubility result is reported as “insoluble” in the data set “Solubility” (acetone); “soluble” in “Solubility” (ethanol); “insoluble” in the data set “Solubility” (ethyl acetate); “soluble” in the data set “Solubility” (methanol); “soluble” in “Solubility” (water). Also, the minimal effective concentration in the data set on Komatsuna seeds worked out at 3.13 µg/mL. Also, the growth retardation entry in data set [1] (125 ppm, all plants, after 2 weeks vs untreated control) is “about 50%”. Further, the plant growth retardation entry in data set [1] (summary statement) is recorded as “can retard plant growth without killing the plants”. Moreover, the “growth inhibition of the shoot and rhizome” value in the data set with purple nutsedge is “almost complete growth inhibition”. For the same compound, in the data set on mice, the abnormalities observed result is “no abnormalities were detected”. The herbicidal activity result in the data set on various weeds was “excellent herbicidal activity”.
